PubChem BioAssay AID434987 (Southern Research Specialized Biocontainment Screening …, 2010)
Activity calls are given as the source filed them. No rule for the calls is given here.

System: M. tuberculosis H37Rv growth inhibition with meropenem
Experiment: dose response, H37Rv, with and without meropenem (AID 434987);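 also: growth over 7 days at 37 °C before Alamar Blue read on day 9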
[1] = M. tuberculosis H37Rv growth inhibition, measured here: IC50 without meropenem
[2] = M. tuberculosis H37Rv growth inhibition, measured here: IC90 without meropenem
[3] = measured here: IC90 with meropenem

With CN(C)S(=O)(=O)c1ccc(NC(=O)c2cc3ccccc3o2)cc1 the IC50 was > 100 µM (inactive), the IC50 [1] was over 100 µM and the IC90 [2] was over 100 µM. The IC90 [3] was over 100 µM.

In the case of Cc1ccsc1/C=N/Nc1ncc(Cl)cc1Cl, the IC50 is reported as 8.81 µM, the IC50 [1] is reported as 50.9 µM and the IC90 [2] is reported as over 100 µM. For the same molecule, the IC90 [3] was over 100 µM.

For COc1ccc(-c2csc(Nc3ccc(C)cn3)n2)cc1OC, the IC50 was 44.3 µM (inactive), the IC50 [1] was over 100 µM and the IC90 [2] was over 100 µM. The IC90 [3] was over 100 µM.

O=C1/C(=C/C=C/c2ccco2)SC(=S)N1c1ccc(O)cc1 was tested, and the IC50 was > 100 µM (inactive), the IC50 [1] was over 100 µM and the IC90 [2] was over 100 µM. The IC90 [3] was over 100 µM.

With CCOCC(=O)Nc1cc(C(F)(F)F)ccc1Oc1cccc(Br)c1 the IC50 was 56.9 µM (inactive), the IC50 [1] was over 100 µM and the IC90 [2] was over 100 µM. It also gave an IC90 [3] of over 100 µM.

With CCOC(=O)c1nn(-c2ccc(F)cc2)c2nc(Nc3ccccc3)cc(=O)n12 the IC50 was > 100 µM (inactive), the IC50 [1] was over 100 µM and the IC90 [2] was over 100 µM. It also gave an IC90 [3] of over 100 µM.

For COc1cc(NC(=S)NC(=O)c2cccs2)ccc1NC(=O)C(C)C, the IC50 was > 100 µM (inactive), the IC50 [1] was over 100 µM and the IC90 [2] was over 100 µM. For the same molecule, the IC90 [3] was over 100 µM.

Cc1ccc(-c2nc3ccccc3o2)cc1NC(=S)NC(=O)/C=C/c1ccco1 was tested, and the IC50 was 65.8 µM (inactive), the IC50 [1] was over 100 µM and the IC90 [2] was over 100 µM. For the same molecule, the IC90 [3] was over 100 µM.

With CCOC(OCC)c1cn(Cc2ccc3c(c2)C(=O)c2ccccc2C3=O)nn1 the IC50 was > 100 µM (inactive), the IC50 [1] was over 100 µM and the IC90 [2] was over 100 µM. The IC90 [3] was over 100 µM.

With O=C(Oc1c(-c2ccccc2)c(=O)n2c3c(cccc13)CC2)c1ccc(F)cc1 the IC50 was 6.19 µM, the IC50 [1] was 54.2 µM and the IC90 [2] was over 100 µM. The IC90 [3] was 34 µM.

In the case of Cc1c(C(=O)NCCC2=CCCCC2)sc2ncnc(N3CCCCC3C)c12 (centres undefined), the IC50 is reported as 47.5 µM (inactive), the IC50 [1] is reported as 65.7 µM and the IC90 [2] is reported as over 100 µM. It also gave an IC90 [3] of 52 µM.

COc1ccc(-c2csc(Nc3ncccc3C)n2)cc1OC was tested, and the IC50 was 61.3 µM (inactive), the IC50 [1] was over 100 µM and the IC90 [2] was over 100 µM. For the same molecule, the IC90 [3] was over 100 µM.

With COc1ccc(C(=O)n2c(SC)nc3cc4c(cc32)OCCO4)cc1 the IC50 was 34.3 µM, the IC50 [1] was over 100 µM and the IC90 [2] was over 100 µM. It also gave an IC90 [3] of over 100 µM.

For Cc1cc(C(=O)Nc2ccc(Br)cc2F)n(-c2ccccc2)n1, the IC50 was > 100 µM (inactive), the IC50 [1] was over 100 µM and the IC90 [2] was over 100 µM. For the same molecule, the IC90 [3] was over 100 µM.

For Cc1cc(C)cc(SCc2noc(C(=O)NC(C)C)c2C(=O)O)c1, the IC50 was 25.1 µM (inactive), the IC50 [1] was 45.2 µM and the IC90 [2] was 50.7 µM. The IC90 [3] was 27.3 µM.

In the case of CC(C(=O)Nc1nc2ccccc2[nH]1)N1C(=O)C2CC=CCC2C1=O (centres undefined), the IC50 is reported as > 100 µM (inactive), the IC50 [1] is reported as over 100 µM and the IC90 [2] is reported as over 100 µM. For the same molecule, the IC90 [3] was over 100 µM.

Molecule COC(=O)c1sc(-c2ccc(C(C)(C)C)cc2)cc1NC(=O)CCC(=O)O has an IC50 of 1.37 µM, an IC50 [1] of 23.8 µM and an IC90 [2] of over 100 µM. It also gave an IC90 [3] of 28.7 µM.

In the case of COc1ccc([C@H]2CC(=O)C=C(/C=C/c3ccccc3)C2)cc1OC, the IC50 is reported as > 100 µM (inactive), the IC50 [1] is reported as over 100 µM and the IC90 [2] is reported as over 100 µM. It also gave an IC90 [3] of over 100 µM.

In the case of Cc1cccc(Cl)c1NC(=S)NN, the IC50 is reported as 36 µM (inactive), the IC50 [1] is reported as 44.5 µM and the IC90 [2] is reported as 59.5 µM. For the same molecule, the IC90 [3] was 55.1 µM.

In the case of CC/C(=N\NC(=O)c1ccc(-c2ccccc2)cc1)C12CC3CC(CC(C3)C1)C2, the IC50 is reported as 40.7 µM (inactive), the IC50 [1] is reported as 41.1 µM and the IC90 [2] is reported as 47.9 µM. For the same molecule, the IC90 [3] was 43.7 µM.

CC(=O)NC(=S)Nc1ccc(NC(=O)c2cccnc2Cl)cc1 was tested, and the IC50 was > 100 µM (inactive), the IC50 [1] was over 100 µM and the IC90 [2] was over 100 µM. The IC90 [3] was over 100 µM.

For O=C(CSc1nc2ncc(Cl)cc2[nH]1)Nc1cccc(F)c1, the IC50 was > 100 µM (inactive), the IC50 [1] was over 100 µM and the IC90 [2] was over 100 µM. For the same molecule, the IC90 [3] was over 100 µM.

COc1ccc(-c2c(-c3ccsc3)oc3ccc(N4CCOCC4)cc23)cc1 was tested, and the IC50 was > 100 µM (inactive), the IC50 [1] was over 100 µM and the IC90 [2] was over 100 µM. It also gave an IC90 [3] of over 100 µM.

O=C(O)c1cc(-c2ccco2)nc2ccc(Br)cc12 was tested, and the IC50 was > 100 µM (inactive), the IC50 [1] was over 100 µM and the IC90 [2] was over 100 µM. It also gave an IC90 [3] of over 100 µM.

With Cc1ccc(C(=O)N/C(=C\c2ccc(-c3ccc(Cl)cc3)o2)C(=O)NCCCN(C)C)cc1 the IC50 was 22.4 µM (inactive), the IC50 [1] was 25.2 µM and the IC90 [2] was 28.3 µM. It also gave an IC90 [3] of 23.7 µM.

COc1ccc2oc(=N)c(C(=O)Nc3ccccc3)cc2c1 was tested, and the IC50 was > 100 µM (inactive), the IC50 [1] was over 100 µM and the IC90 [2] was over 100 µM. The IC90 [3] was over 100 µM.

N#Cc1c(C(F)(F)F)cc(-c2ccccc2)nc1SCc1nc(N)nc(N2CCOCC2)n1 was tested, and the IC50 was > 100 µM (inactive), the IC50 [1] was over 100 µM and the IC90 [2] was over 100 µM. The IC90 [3] was over 100 µM.

CCCCNC(=O)/C(=C/c1ccccc1)NC(C)=O was tested, and the IC50 was > 100 µM (inactive), the IC50 [1] was over 100 µM and the IC90 [2] was over 100 µM. For the same molecule, the IC90 [3] was over 100 µM.

For CC(=O)[C@@]1(O)CC[C@H]2[C@@H]3C[C@H](C)C4=CC(=O)CC[C@]4(C)[C@H]3CC[C@@]21C, the IC50 was > 100 µM (inactive), the IC50 [1] was over 100 µM and the IC90 [2] was over 100 µM. It also gave an IC90 [3] of over 100 µM.

In the case of O=C(c1cnn2c(C(F)(F)F)cc(-c3cccs3)nc12)N1CCN(C(c2ccccc2)c2ccccc2)CC1, the IC50 is reported as 26.6 µM (inactive), the IC50 [1] is reported as 32.5 µM and the IC90 [2] is reported as over 100 µM. The IC90 [3] was over 100 µM.

With CSc1nsc(SC)c1NC(=O)OCc1ccccc1 the IC50 was 32.3 µM, the IC50 [1] was over 100 µM and the IC90 [2] was over 100 µM. The IC90 [3] was over 100 µM.

With CCOC(=O)C1=C(C)N=c2s/c(=C\c3ccncc3)c(=O)n2C1c1ccc2c(c1)OCO2 (centres undefined) the IC50 was 69.7 µM (inactive), the IC50 [1] was 95.7 µM and the IC90 [2] was over 100 µM. The IC90 [3] was over 100 µM.

For COc1ccc(CC2=C(O)c3ccccc3C(=O)C2=O)cc1, the IC50 was 47.2 µM (inactive), the IC50 [1] was over 100 µM and the IC90 [2] was over 100 µM. It also gave an IC90 [3] of over 100 µM.

With CCCCN(C)Cc1cc(=O)oc2cc3c(cc12)CCCC3 the IC50 was 64.3 µM (inactive), the IC50 [1] was 80.1 µM and the IC90 [2] was over 100 µM. It also gave an IC90 [3] of 82.2 µM.

For CC(C)(C)[C@@H]1C=C(C(=O)Nc2ccccc2)O[C@H](OCc2ccc(CO)cc2)C1, the IC50 was 75 µM (inactive), the IC50 [1] was 93.1 µM and the IC90 [2] was over 100 µM. For the same molecule, the IC90 [3] was over 100 µM.

COc1ccc(OC)c(-c2cc(C(=O)Nc3c(C)nn(Cc4ccccc4C)c3C)no2)c1 was tested, and the IC50 was > 100 µM (inactive), the IC50 [1] was over 100 µM and the IC90 [2] was over 100 µM. It also gave an IC90 [3] of over 100 µM.

In the case of CCCOc1ccc(C(=O)CCN2CCCCC2)cc1, the IC50 is reported as 13.4 µM, the IC50 [1] is reported as 54 µM and the IC90 [2] is reported as 77.1 µM. The IC90 [3] was 36.4 µM.

In the case of Cc1ccc(C(=O)Nc2ccc(N3CCN(C(=O)c4cccs4)CC3)cc2)c(Cl)c1, the IC50 is reported as > 100 µM (inactive), the IC50 [1] is reported as over 100 µM and the IC90 [2] is reported as over 100 µM. It also gave an IC90 [3] of over 100 µM.

CC1(C)C2CC=C(/C=N/NC(=O)c3ccccc3O)C1C2 (centres undefined) was tested, and the IC50 was 65.7 µM (inactive), the IC50 [1] was over 100 µM and the IC90 [2] was over 100 µM. The IC90 [3] was over 100 µM.

In the case of CCO[C@H]1OC(C(=O)NCc2nc3ccccc3[nH]2)=C[C@@H](c2ccc(C(F)(F)F)cc2)[C@@H]1CCCO, the IC50 is reported as > 100 µM (inactive), the IC50 [1] is reported as over 100 µM and the IC90 [2] is reported as over 100 µM. For the same molecule, the IC90 [3] was over 100 µM.

In the case of C/C(=N\NC(=O)c1cc2c(s1)CCC(C)C2)c1cccnc1 (centres undefined), the IC50 is reported as > 100 µM (inactive), the IC50 [1] is reported as over 100 µM and the IC90 [2] is reported as over 100 µM. For the same molecule, the IC90 [3] was over 100 µM.
